Reference: publication PMC11113362 (MicrobiologyOpen, 2024)
“Also recorded” adds a separate entry of the source. Read-outs that look alike come from different tables or passages of the source. Where a SMILES comes first, the peptide text is derived from it.

Columns and labels:
[1] = molecular target: T1, AgtB (PA0604) solute binding protein (Pseudomonas aeruginosa, UniProt Q9I5T4); assay: biochemical
Method: (§1) Experiments were conducted on a VP‐microcalorimeter (Microcal). Proteins were dialyzed into the TMP buffer, placed at a concentration of 20–40 µM into the sample cell and titrated with 0.25–2.5 mM ligand solutions that were prepared using the dialysis buffer immediately before use. […] The mean enthalpies measured from the injection of ligands into the buffer were subtracted from raw titration data before data analysis with the MicroCal version of ORIGIN. Data were fitted with the “One binding site model” of ORIGIN.

P. aeruginosa PAO1 = assay: Growth experiments with ligand as sole carbon source; details: M9 minimal medium, 10 mM compound, 37°C
[2] = molecular target: T2, PA0602 solute binding protein (Pseudomonas aeruginosa, UniProt Q9I5T6); details: thermal shift assay, Biolog compound arrays, more than 2°C considered significant
Method: (§2) Briefly, assays were carried out using a MyIQ2 Real‐Time PCR instrument (BioRad). Experiments were conducted in 96‐well plates, and each assay mixture contained 20.5 μL of the dialyzed protein at 10–50 μM, 2 μL of 5X SYPRO orange (Life Technologies) and 2.5 μL of ligand solution or the equivalent amount of buffer in the ligand‐free control. Compound arrays PM1, PM2a, PM3B, PM4A, PM5, PM6, PM7, and PM8 from Biolog (Newark) were used. Compounds were dissolved in 50 μL water that, according to the information provided by the manufacturer, corresponds to a concentration of 10–20 mM. […] The protein unfolding curves were monitored by detecting changes in SYPRO Orange fluorescence. The Tm values correspond to the minima of the first derivatives of the raw fluorescence data.
The PA0602 protein was overexpressed in E. coli and purified. Freshly dialyzed protein was submitted to thermal shift assays‐based ligand screening using the Biolog compound arrays PM1, PM2A (both carbon sources), PM3B (nitrogen sources), PM4 (phosphorous and sulfur sources), PM5 (nutrient supplements), PM6, PM7, and PM8 (all peptide nitrogen sources). Ligand binding to the protein typically delays thermal unfolding causing increases in the midpoint of the protein unfolding transition (Tm). Tm increases of more than 2°C are considered significant.

[3] = molecular target: T3, PA4985 solute binding protein (Pseudomonas aeruginosa, UniProt Q9HUI0); details: thermal shift assay, Biolog compound arrays, more than 2°C considered significant
Method: as §2

[4] = molecular target: T3, PA4985 solute binding protein; assay: biochemical; design: species or system Pseudomonas aeruginosa PAO1
Source text: PA4985 is an uncharacterized protein. […] .

[5] = molecular target: T2, PA0602 solute binding protein; assay: biochemical; design: species or system Pseudomonas aeruginosa PAO1; details: for K D: PA0602, microcalorimetric titration, TMP buffer pH 8
Source text: At times thermal shift assays provide […] results, i.e. although there is binding, the Tm shift induced is only minor.

[6] = molecular target: T1, AgtB (PA0604) solute binding protein; details: microcalorimetric titration, TMP buffer pH 8
Method: as §1

PA0602 = molecular target: T4, PA0602 (Pseudomonas aeruginosa, UniProt Q9I5T6); assay: Isothermal titration calorimetry (VP-microcalorimeter) of 20-40 µM purified SBP titrated with 0.25-2.5 mM ligand in TMP buffer (5 mM Tris-HCl, 5 mM MES, 5 mM PIPES, 10% glycerol, pH 8), fitted with the one binding site model; temperature not stated.
T4 construct: residues 22-344, signal peptide omitted, N-terminal His-tag with thrombin site, expressed in E. coli BL21 (DE3)

PA4985 = molecular target: T5, PA4985 (Pseudomonas aeruginosa, UniProt Q9HUI0); assay: as above
T5 construct: residues 40-363, signal peptide omitted, N-terminal His-tag with thrombin site, expressed in E. coli BL21 (DE3)

P. aeruginosa = tested on: P. aeruginosa; design: method as in Dagorn et al., 2013; details: 10 μM GABA; ref Dagorn et al., 2013; cited from earlier work
[7] = molecular target: T1, AgtB (PA0604) solute binding protein; details: thermal shift assay, Biolog compound arrays, more than 2°C considered significant
Method: as §2
To identify the ligands that interact with AgtB, we pursued the same strategy and screened for ligand binding using the PM1 to PM8 compound arrays.

[8] = tested on: AgtS‐LBD (PA0600, amino acids 22–274); assay: Isothermal titration calorimetry of AgtS‐LBD (small ligand and protein‐protein binding studies); details: for K D (binding of SBP to AgtS‐LBD): 5–10 μM SBP titrated with 50–97 μM AgtS‐LBD, no small ligand; for Protein–protein interaction with AgtS‐LBD, His‐tag‐free protein: His‐tag removed by thrombin, in the presence of GABA (PA0602) or 5‐AMV (AgtB); for K D (binding of ligand‐loaded SBP to AgtS‐LBD): both compartments contained 5 mM 5‐AMV (AgtB) or 1 mM GABA (PA0602)
Method: as §1
Fractions that correspond to cleaved protein were dialyzed overnight into the TMP buffer for ITC experiments.
To address this issue, the individual AgtS‐LBD was produced as a purified, recombinant protein.
To assess the possibility of SBP‐mediated activation of AgtS, we conducted protein‐protein microcalorimetric binding studies (Table 1).
Proteins used for these experiments contained an N‐terminal extension harboring the His‐tag. To exclude the possibility that the presence of this extension impedes protein interaction, the tag was cleaved with thrombin in freshly purified PA0602, AgtB, and AgtS‐LBD and its removal was verified by SDS‐PAGE (Figure A4).

[9] = molecular target: T6, AruS‐LBD (PA4982, residues 31–141) (Pseudomonas aeruginosa, UniProt Q9HUI3); assay: Bacterial two‐hybrid assay (BACTH); details: BACTH in E. coli BTH101 on X‐Gal plates; no ligand or GABA, 5‐AMV, spermidine or ethylenediamine at 5 mM
T6 sequence (Q9HUI3 whole entry, looked up): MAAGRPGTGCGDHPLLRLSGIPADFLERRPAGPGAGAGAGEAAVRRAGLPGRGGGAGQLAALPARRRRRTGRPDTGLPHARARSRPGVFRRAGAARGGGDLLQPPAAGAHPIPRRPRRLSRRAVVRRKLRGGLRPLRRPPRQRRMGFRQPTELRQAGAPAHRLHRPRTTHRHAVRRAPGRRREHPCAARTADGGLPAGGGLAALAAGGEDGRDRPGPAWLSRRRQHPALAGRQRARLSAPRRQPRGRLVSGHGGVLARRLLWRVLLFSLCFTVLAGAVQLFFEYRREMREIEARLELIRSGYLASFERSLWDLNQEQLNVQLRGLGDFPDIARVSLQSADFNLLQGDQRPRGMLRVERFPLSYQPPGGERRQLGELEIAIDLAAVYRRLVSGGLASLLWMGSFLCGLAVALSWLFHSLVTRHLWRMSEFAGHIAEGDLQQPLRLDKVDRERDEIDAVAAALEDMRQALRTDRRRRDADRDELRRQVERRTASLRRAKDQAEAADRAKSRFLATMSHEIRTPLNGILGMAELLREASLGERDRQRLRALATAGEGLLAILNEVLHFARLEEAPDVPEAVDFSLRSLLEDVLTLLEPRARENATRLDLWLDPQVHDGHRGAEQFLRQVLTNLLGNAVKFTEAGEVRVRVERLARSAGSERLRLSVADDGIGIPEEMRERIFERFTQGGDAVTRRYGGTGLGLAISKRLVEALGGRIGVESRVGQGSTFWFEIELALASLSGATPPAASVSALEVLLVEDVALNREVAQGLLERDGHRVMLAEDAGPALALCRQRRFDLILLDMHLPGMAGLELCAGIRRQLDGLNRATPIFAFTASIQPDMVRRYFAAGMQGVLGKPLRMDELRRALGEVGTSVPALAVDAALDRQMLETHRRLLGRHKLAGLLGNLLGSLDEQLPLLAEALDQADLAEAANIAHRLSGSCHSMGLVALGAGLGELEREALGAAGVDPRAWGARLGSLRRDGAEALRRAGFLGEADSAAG
Method: Plates were incubated at 30°C for 24–48 h. As a positive control, the plasmids pKT25‐zip and pUT18C‐zip were co‐transformed into E. coli BTH101. Negative controls were E. coli BTH101 harboring pUT18C and pKNT25::AruS (strain K^+T^−), and a strain harboring pUT18C::PA4985 and pKNT25 (strain K^−T^+).
This system is based on an adenylate cyclase that contains two catalytically active domains. […] The resulting increase in cAMP induces the expression of lactose and maltose operons, causing a blue colouration of bacteria on X‐Gal‐containing plates. We generated a plasmid that expresses PA4985 fused to one enzyme subunit (pUT18C::PA4985) and a plasmid encoding a fusion of AruS‐LBD to the other subunit (pKNT25::AruS). E. coli BTH101 was transformed with both plasmids, resulting in strain K^+T^+. The K^+T^− and K^−T^+ are negative control strains that contained one of the plasmid constructs (plus sign) and the empty version of the second plasmid (minus sign). The positive control (C+) was provided by the manufacturer.

NCCCCC(=O)O [5‐AMV, 5‐aminovalerate]
Kd [1]: 17 ± 0.8 µM | Growth as sole carbon source (P. aeruginosa PAO1): significant growth | Tm shift [2]: 2.3 °C | Tm shift [3]: 7.6 °C | Kd [4]: 1.6 ± 0.1 µM | Kd [5]: 30 ± 2 µM

C[C@H](N)C(=O)NCC(=O)O [Ala‐Gly] (H-Ala-Gly-OH)
K D [6]: did not reveal binding

NCCN [Ethylenediamine, ethylenediamine]
Kd (PA0602): 103 ± 4 µM | Tm shift [2]: 2.0 °C | Tm shift [3]: 3.5 °C | Kd (PA4985): 19 ± 1 µM

NCCCC(=O)O [GABA, γ‐aminobutyrate]
Growth as sole carbon source (P. aeruginosa PAO1): significant growth | Cytotoxicity and virulence (P. aeruginosa): strongly increased | Growth or motility (P. aeruginosa): did not modulate | K D [6]: did not reveal binding; also recorded: No binding | Kd [4]: 0.58 ± 0.1 µM | Kd [5]: 2.3 ± 0.8 µM

NCC(=O)N[C@@H](CCC(N)=O)C(=O)O [Gly‐Gln] (H-Gly-Gln-OH)
K D [6]: did not reveal binding

N=C(N)NCCC[C@H](N)C(=O)O [L‐Arg]
Tm shift [3]: No binding | K D ([4]; PA4985, microcalorimetric titration, TMP buffer pH 8): No binding

CC(=O)N[C@@H]1[C@@H](O)[C@H](O)[C@@H](CO)O[C@@H]1O [N‐acetyl‐D‐glucosamine]
Tm shift [7]: absence of binding; also recorded: No binding | Tm shift [2]: absence of binding | Tm shift ([2]; listed as NADG): No binding | K D [6]: absence of binding; also recorded: No binding | Binding of small ligand to AgtS‐LBD ([8]; microcalorimetric titration of AgtS‐LBD): did not show binding | K D [5]: absence of binding | K D ([5]; listed as NADG): No binding

NCCCCNCCCN [Spermidine, spermidine]
Growth as sole carbon source (P. aeruginosa PAO1): significant growth | Tm shift [2]: No binding | Tm shift [3]: 2.8 °C | Kd [4]: 160 ± 23 µM | K D [5]: No binding

NCCCCN [putrescine]
Tm shift [2]: No binding | K D [5]: No binding

NCCC(=O)O [β‐alanine]
Tm shift [7]: No binding | K D [6]: No binding

B1: AgtB: recombinant His‐tagged solute binding protein (SBP_bac_8) of P. aeruginosa PAO1, part of the agt transporter operon (protein)
chain: MGSSHHHHHHSSGLVPRGSHMAVDLTVVSFGGANKSAQIKAFYEPYQKATGNRIVAGEYNGEMAKVKAMVDTNSVSWDLVEVESPELSRGCDEGLFEELDPAQFGKTEDFVPGAIQPCGVGFFVWSTVLAYNADKLKSAPTSWADFWDIKKFPGKRGLRKGAKYTLEFALMADGVAPKDVYGVLATKEGQDRAFKKLDEIKSSIQWWEAGAQPPQYLASGDVVMSSAYNGRIAAVQKESNLKVVWNGGIYDFDAWAIPKGAKKREETLKFIAFSVQPQQQKTYSENIAYGPANKQAVPLLDKALLKDMPTTPENIQNQVAMDVTFWADYGEQLEQRFNAWAAR
K D (binding of SBP to AgtS‐LBD) [8]: did not show any binding; also recorded: did not reveal binding; also recorded: No binding | Protein–protein interaction with AgtS‐LBD, His‐tag‐free protein [8]: did not result in any protein–protein interaction | K D (binding of ligand‐loaded SBP to AgtS‐LBD) [8]: absence of binding

B2: PA4985: solute binding protein (SBP_bac_8) of P. aeruginosa PAO1 encoded near the aruSR TCS (protein)
chain: MGSSHHHHHHSSGLVPRGSHMADDGLVVVGYGGAGQKAQEVAFFQPFTQQTGIPVVQSEYNGEMARIKVMADTGHADWDLVQVEGPDLARGCDDGLFERLDWQAIGGKQQLIANAAQECGSAALVWGVAIGYDADRLQQPPASWADFWDVQRFPGKRGLRKRAIYNLEFALLADGVPREQVYPLLATRAGADRAFAKLGQLKPYIQWWEAGAQPAQWLAAGDVVMTSTYTGRIADAHRAGRNLALVWQGSLYGMDYWAVVKGSKRGAEARRFIAFANAPDAQVRYVENIPYGPTNRQAAQRLPAQLASWVPTAPANLEQGLAMDDEFWVEHGEELEERFNAWASQ
PA4985/AruS‐LBD interaction [9]: did not demonstrate an interaction; also recorded: absence of an PA4985/AruS–LBD interaction

B3: PA0602: recombinant His‐tagged solute binding protein (SBP_bac_8) of P. aeruginosa PAO1 (protein)
chain: MGSSHHHHHHSSGLVPRGSHMAEYVTVISFGGANKEAQETAFYKPFKSATGNRVVHGSYNGDLAKLKRMVEISHVSWDVVEVEAPELARGCEEGLFEKLDMAKVGDPADFVPGAVQPCGVGIFVWTTLLAYNPGKVAGSPQGWADFWDVKKFPGKRGLRWGAKYSLEFALMADGVAPKDVYQTLATPAGVERAFRKLDELKPYIHWWKSGQDPVRDLADGTVVMSSAYNGRIAAAQAEKQRLAMVWSGGVYDFDFWALPVGVWKKQLAEEFIRFASQPEQQKAFAENIAYGPANRKAVGLLDPQVAANLPTAPQNMQNAVGMNVAFWAEHGEALEQRFQNWAKR
K D (binding of SBP to AgtS‐LBD) [8]: did not show any binding; also recorded: did not reveal binding; also recorded: No binding | Protein–protein interaction with AgtS‐LBD, His‐tag‐free protein [8]: did not result in any protein–protein interaction | K D (binding of ligand‐loaded SBP to AgtS‐LBD) [8]: absence of binding
